Experimental data: patent publication US10736883B2, “Triazole furan compounds as agonists of the APJ receptor” (AMGEN INC., priority 2016, dated 2020)

molecular target: APJ receptor (Homo sapiens (Human), UniProt P35414); assay: [35S]GTPγS binding assay on membranes from CHO cells stably expressing human APJ receptor; type: biochemical; conditions: membranes of CHO cells stably expressing human APJ receptor, means of several independent experiments, read-out: Activity hAPJ SPA EC50 IP
In short: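 EC50 values were obtained by non-linear regression of [35S]GTPγS (0.2 nM) binding after 90 min at RT, with nonspecific binding defined by 100 μM GTPγS. Reactions used human APJ–expressing CHO cell membranes on WGA PS beads in HEPES pH 7.5 buffer with 5 mM MgCl2, 200 mM NaCl, 3 μM GDP and 0.1% BSA.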

APJ receptor, sequence (P35414 whole entry): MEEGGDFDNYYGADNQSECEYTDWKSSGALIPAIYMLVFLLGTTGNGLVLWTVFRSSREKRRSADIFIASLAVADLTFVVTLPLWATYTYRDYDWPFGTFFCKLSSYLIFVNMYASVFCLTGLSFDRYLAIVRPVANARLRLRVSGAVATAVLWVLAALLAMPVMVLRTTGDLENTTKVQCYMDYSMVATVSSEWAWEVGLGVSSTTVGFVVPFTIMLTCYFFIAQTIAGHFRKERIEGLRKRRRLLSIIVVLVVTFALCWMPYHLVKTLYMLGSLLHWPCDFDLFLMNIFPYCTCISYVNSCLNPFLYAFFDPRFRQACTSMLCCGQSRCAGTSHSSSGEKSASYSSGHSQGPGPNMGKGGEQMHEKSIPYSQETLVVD

Question: Which EC50 does the source give for `COc1cccc(OC)c1-n1c(NS(=O)(=O)[C@H](C)[C@@H](O)c2ncc(F)cn2)nnc1-c1ccc(C)o1` (single isomer, unassigned) [Example 93.0, (1R,2S)—N-(4-(2,6-Dimethoxyphenyl)-5-(5-methyl-2-furanyl)-4H-1,2,4-triazol-3-yl)-1-(5-fluoro-2-pyrimidinyl)-1-hydroxy-2-propanesulfonamide or (1S,2R)—N-(4-(2,6-dimethoxyphenyl)-5-(5-methyl-2-furanyl)-4H-1,2,4-triazol-3-yl)-1-(5-fluoro-2-pyrimidinyl)-1-hydroxy-2-propanesulfonamide] here?
Answer: 0.14 nM

Question: Which EC50 does the source give for `COc1cccc(OC)c1-n1c(NS(=O)(=O)C[C@H](O)c2ccc(Cl)cc2S(C)(=O)=O)nnc1-c1ccc(C)o1` (single isomer, unassigned) [Example 144.0, (2R)-2-(4-Chloro-2-(methylsulfonyl)phenyl)-N-(4-(2,6-dimethoxyphenyl)-5-(5-methyl-2-furanyl)-4H-1,2,4-triazol-3-yl)-2-hydroxyethanesulfonamide or (2S)-2-(4-chloro-2-(methylsulfonyl)phenyl)-N-(4-(2,6-dimethoxyphenyl)-5-(5-methyl-2-furanyl)-4H-1,2,4-triazol-3-yl)-2-hydroxyethanesulfonamide] here?
Answer: 0.073 nM

Question: `COc1ncnc(OC)c1-n1c(NS(=O)(=O)CCc2ccc(F)cc2C#N)nnc1-c1ccco1` [Example 252.0, 2-(2-Cyano-4-fluorophenyl)-N-(4-(4,6-dimethoxy-5-pyrimidinyl)-5-(2-furanyl)-4H-1,2,4-triazol-3-yl)ethanesulfonamide] was tested. Which EC50 did it give?
Answer: 9.7 nM

Question: For “(1R,2R)-N-(4-(2,6-dimethoxyphenyl)-5-(5-methyl-2-furanyl)-4H-1,2,4-triazol-3-yl)-1-hydroxy-1-(5-methyl-2-pyrimidinyl)-2-propanesulfonamide or (1S,2S)-N-(4-(2,6-dimethoxyphenyl)-5-(5-methyl-2-furanyl)-4H-1,2,4-triazol-3-yl)-1-hydroxy-1-(5-methyl-2-pyrimidinyl)-2-propanesulfonamide [Example 244.0]”, which EC50 is on record?
Answer: 0.94 nM

Question: `COc1cccc(OC)c1-n1c(NS(=O)(=O)[C@H]2C[C@@H](O)CN(c3nc(C)cc(C)n3)C2)nnc1-c1ccc(C)o1` (racemic) [Example 326.0, (3S,5R)—N-(4-(2,6-Dimethoxyphenyl)-5-(5-methylfuran-2-yl)-4H-1,2,4-triazol-3-yl)-1-(4,6-dimethylpyrimidin-2-yl)-5-hydroxypiperidine-3-sulfonamide and (3R,5S)—N-(4-(2,6-dimethoxyphenyl)-5-(5-methylfuran-2-yl)-4H-1,2,4-triazol-3-yl)-1-(4,6-dimethylpyrimidin-2-yl)-5-hydroxypiperidine-3-sulfonamide] was tested. Which EC50 did it give?
Answer: 0.24 nM

Question: For `COc1cccc(OC)c1-n1c(NS(=O)(=O)[C@@H](C)[C@H](C)c2ncc(F)cn2)nnc1-c1ccc(C)o1` (racemic) [Example 135.0], which EC50 is on record?
Answer: 16 nM

Question: With `[2H]C([2H])([2H])c1ccc(-c2nnc(NS(=O)(=O)[C@@H](C)[C@H](C)c3ncc(F)cn3)n2-c2c(OC)ncnc2OC)o1` [Example 395.0, (2S,3R)—N-(4-(4,6-Dimethoxy-5-pyrimidinyl)-5-(5-trideuteromethyl-2-furanyl)-4H-1,2,4-triazol-3-yl)-3-(5-fluoro-2-pyrimidinyl)-2-butanesulfonamide] as the molecule, how does the EC50 read?
Answer: 0.26 nM

Question: With `COc1cccc(OC)c1-n1c(NS(=O)(=O)[C@H](C)[C@@H](O)c2cn3ccccc3n2)nnc1-c1ccc(C)o1` (racemic) [Example 269.0, (1R,2S)—N-(4-(2,6-Dimethoxyphenyl)-5-(5-methyl-2-furanyl)-4H-1,2,4-triazol-3-yl)-1-hydroxy-1-imidazo[1,2-a]pyridin-2-yl-2-propanesulfonamide and (1S,2R)—N-(4-(2,6-dimethoxyphenyl)-5-(5-methyl-2-furanyl)-4H-1,2,4-triazol-3-yl)-1-hydroxy-1-imidazo[1,2-a]pyridin-2-yl-2-propanesulfonamide] as the molecule, how does the EC50 read?
Answer: 0.49 nM

Question: With `COc1cccc(OC)c1-n1c(NS(=O)(=O)[C@@H]2CCCN(C(=O)N(C)C)C2)nnc1-c1ccco1` (single isomer, unassigned) [Example 340.0, (S)-3-(N-(4-(2,6-Dimethoxyphenyl)-5-(furan-2-yl)-4H-1,2,4-triazol-3-yl)sulfamoyl)-N,N-dimethylpiperidine-1-carboxamide or (R)-3-(N-(4-(2,6-dimethoxyphenyl)-5-(furan-2-yl)-4H-1,2,4-triazol-3-yl)sulfamoyl)-N,N-dimethylpiperidine-1-carboxamide] as the molecule, how does the EC50 read?
Answer: 75 nM

Question: For `COc1cccc(OC)c1-n1c(NS(=O)(=O)[C@@H]2C[C@@H](c3ccc(F)cc3)CN(C(C)=O)C2)nnc1-c1ccc(C)o1` (single isomer, unassigned) [Example 171.0, (3R,5S)-1-Acetyl-N-(4-(2,6-dimethoxyphenyl)-5-(5-methyl-2-furanyl)-4H-1,2,4-triazol-3-yl)-5-(4-fluorophenyl)-3-piperidinesulfonamide or (3S,5R)-1-acetyl-N-(4-(2,6-dimethoxyphenyl)-5-(5-methyl-2-furanyl)-4H-1,2,4-triazol-3-yl)-5-(4-fluorophenyl)-3-piperidinesulfonamide], which EC50 is on record?
Answer: 1.2 nM

Question: `COC[C@H](C)n1c(NS(=O)(=O)[C@@H](C)[C@H](C)c2ncc(Cl)cn2)nnc1-c1ccc(C)o1` [Example 398.0, (2S,3R)-3-(5-chloro-2-pyrimidinyl)-N-(4-((2S)-1-methoxy-2-propanyl)-5-(5-methyl-2-furanyl)-4H-1,2,4-triazol-3-yl)-2-butanesulfonamide] was tested. Which EC50 did it give?
Answer: 10 nM

Question: With `COc1cccc(OC)c1-n1c(NS(=O)(=O)[C@H](C)[C@@H](O)c2ccnc3c2OCCC3)nnc1-c1ccc(C)o1` (single isomer, unassigned) [Example 293.0, (1R,2S)-1-(3,4-Dihydro-2H-pyrano[3,2-b]pyridin-8-yl)-N-(4-(2,6-dimethoxyphenyl)-5-(5-methyl-2-furanyl)-4H-1,2,4-triazol-3-yl)-1-hydroxy-2-propanesulfonamide or (1S,2R)-1-(3,4-dihydro-2H-pyrano[3,2-b]pyridin-8-yl)-N-(4-(2,6-dimethoxyphenyl)-5-(5-methyl-2-furanyl)-4H-1,2,4-triazol-3-yl)-1-hydroxy-2-propanesulfonamide] as the molecule, how does the EC50 read?
Answer: 5.5 nM

Question: How did the EC50 turn out when `COc1cccc(OC)c1-n1c(NS(=O)(=O)[C@@H](C)Cc2ccc(Cl)cn2)nnc1-c1ccco1` (racemic) [Example 14.0, (2R)-1-(5-chloro-2-pyridinyl)-N-(4-(2,6-dimethoxyphenyl)-5-(2-furanyl)-4H-1,2,4-triazol-3-yl)-2-propanesulfonamide and (2S)-1-(5-chloro-2-pyridinyl)-N-(4-(2,6-dimethoxyphenyl)-5-(2-furanyl)-4H-1,2,4-triazol-3-yl)-2-propanesulfonamide] was run?
Answer: 0.2 nM

Question: `COc1cccc(OC)c1-n1c(NS(=O)(=O)[C@H](C)Cc2ncc(F)cc2NC(C)=O)nnc1-c1ccco1` (racemic) [Example 28.0, N-(2-((2R)-2-((4-(2,6-dimethoxyphenyl)-5-(2-furanyl)-4H-1,2,4-triazol-3-yl)sulfamoyl)propyl)-5-fluoro-3-pyridinyl)acetamide and N-(2-((2S)-2-((4-(2,6-dimethoxyphenyl)-5-(2-furanyl)-4H-1,2,4-triazol-3-yl)sulfamoyl)propyl)-5-fluoro-3-pyridinyl)acetamide] was tested. Which EC50 did it give?
Answer: 0.48 nM

Question: With `COc1cccc(OC)c1-n1c(NS(=O)(=O)[C@@H](C)Cc2ncc(C)cn2)nnc1-c1ccc(C)o1` (single isomer, unassigned) [Example 16.0, (2S)—N-(4-(2,6-dimethoxyphenyl)-5-(5-methyl-2-furanyl)-4H-1,2,4-triazol-3-yl)-1-(5-methyl-2-pyrimidinyl)-2-propanesulfonamide or (2R)—N-(4-(2,6-dimethoxyphenyl)-5-(5-methyl-2-furanyl)-4H-1,2,4-triazol-3-yl)-1-(5-methyl-2-pyrimidinyl)-2-propanesulfonamide] as the molecule, how does the EC50 read?
Answer: 0.22 nM

Question: How did the EC50 turn out when “(1R,2R)-N-(4-(2,6-dimethoxyphenyl)-5-(5-methyl-2-furanyl)-4H-1,2,4-triazol-3-yl)-1-methoxy-1-(5-methyl-2-pyrimidinyl)-2-propanesulfonamide or (1S,2S)-N-(4-(2,6-dimethoxyphenyl)-5-(5-methyl-2-furanyl)-4H-1,2,4-triazol-3-yl)-1-methoxy-1-(5-methyl-2-pyrimidinyl)-2-propanesulfonamide [Example 250.0]” was run?
Answer: 3.3 nM

Question: Which EC50 does the source give for `COc1cccc(OC)c1-n1c(NS(=O)(=O)[C@H](C)Cc2ccncn2)nnc1-c1ccco1` (single isomer, unassigned) [Example 46.0, (2R)—N-(4-(2,6-dimethoxyphenyl)-5-(2-furanyl)-4H-1,2,4-triazol-3-yl)-1-(4-pyrimidinyl)-2-propanesulfonamide or (2S)—N-(4-(2,6-dimethoxyphenyl)-5-(2-furanyl)-4H-1,2,4-triazol-3-yl)-1-(4-pyrimidinyl)-2-propanesulfonamide] here?
Answer: 300 nM

Question: Which EC50 does the source give for `COc1cccc(OC)c1-n1c(NS(=O)(=O)C2C[C@@H]2c2ccc(Cl)cc2)nnc1-c1ccco1` (single isomer, unassigned) [Example 191.0, (1R,2S)-2-(4-Chlorophenyl)-N-(4-(2,6-dimethoxyphenyl)-5-(2-furanyl)-4H-1,2,4-triazol-3-yl)cyclopropanesulfonamide or (1S,2R)-2-(4-chlorophenyl)-N-(4-(2,6-dimethoxyphenyl)-5-(2-furanyl)-4H-1,2,4-triazol-3-yl)cyclopropanesulfonamide] here?
Answer: 15 nM

Question: `COc1cccc(OC)c1-n1c(NS(=O)(=O)CCc2ncc(Cl)cc2CCN2CCOCC2)nnc1-c1ccco1` [Example 239.0, 2-(5-Chloro-3-(2-(4-morpholinyl)ethyl)-2-pyridinyl)-N-(4-(2,6-dimethoxyphenyl)-5-(2-furanyl)-4H-1,2,4-triazol-3-yl)ethanesulfonamide] was tested. Which EC50 did it give?
Answer: 0.6 nM
